Source: ChEMBL document CHEMBL5727416, “Bicyclic heteroarylaminoalkyl phenyl derivatives as PI3K inhibitors” (2019)

Target: T1, Phosphatidylinositol 4,5-bisphosphate 3-kinase catalytic subunit delta isoform (Homo sapiens, UniProt O00329)
T1 sequence (O00329 whole entry): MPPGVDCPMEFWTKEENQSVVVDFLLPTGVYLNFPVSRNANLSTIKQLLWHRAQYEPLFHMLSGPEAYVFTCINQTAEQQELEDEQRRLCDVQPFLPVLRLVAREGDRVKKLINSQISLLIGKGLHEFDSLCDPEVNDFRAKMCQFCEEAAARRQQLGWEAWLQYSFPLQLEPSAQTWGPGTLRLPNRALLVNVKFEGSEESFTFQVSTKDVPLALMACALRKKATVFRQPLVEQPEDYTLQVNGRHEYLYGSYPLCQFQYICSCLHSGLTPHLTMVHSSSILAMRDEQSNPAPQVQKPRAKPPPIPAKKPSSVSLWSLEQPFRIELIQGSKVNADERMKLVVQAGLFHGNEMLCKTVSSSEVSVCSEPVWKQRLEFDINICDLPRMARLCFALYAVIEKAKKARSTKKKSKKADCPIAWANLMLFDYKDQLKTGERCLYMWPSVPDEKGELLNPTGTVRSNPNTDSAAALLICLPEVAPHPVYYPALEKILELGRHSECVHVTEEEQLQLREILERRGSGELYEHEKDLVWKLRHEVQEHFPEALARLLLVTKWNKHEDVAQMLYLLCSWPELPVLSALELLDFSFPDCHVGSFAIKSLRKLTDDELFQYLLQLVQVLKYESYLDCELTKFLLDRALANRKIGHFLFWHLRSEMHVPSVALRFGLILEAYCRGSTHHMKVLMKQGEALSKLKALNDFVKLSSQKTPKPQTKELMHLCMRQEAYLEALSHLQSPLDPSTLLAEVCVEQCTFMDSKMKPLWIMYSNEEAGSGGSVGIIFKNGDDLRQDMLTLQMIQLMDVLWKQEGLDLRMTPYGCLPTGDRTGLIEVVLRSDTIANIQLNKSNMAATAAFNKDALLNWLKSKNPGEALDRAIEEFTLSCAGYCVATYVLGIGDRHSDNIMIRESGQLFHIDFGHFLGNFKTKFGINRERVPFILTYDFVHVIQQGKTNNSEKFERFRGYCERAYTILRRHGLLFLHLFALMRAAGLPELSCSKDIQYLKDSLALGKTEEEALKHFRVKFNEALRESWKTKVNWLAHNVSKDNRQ
Experiment: Scintillation Proximity Assay: PI3Kδ:The kinase reaction was conducted in polystyrene 384-well matrix white plate from Thermo Fisher Scientific in a final volume of 25 μL. Inhibitors were first diluted serially in DMSO and added to the plate wells before the addition of other reaction components. The final concentration of DMSO in the assay was 0.5%. The PI3K assays were carried out at room temperature in 20 mM MOPS, pH 6.7, 10 mM MgCl2, 5 mM DTT and CHAPS 0.03%. Reactions were initiated by the addition of ATP, the final reaction mixture consisted of 20 μM PIP2, 20 μM ATP, 0.2 μCi [γ-33P] ATP, 4 nM PI3Kδ. Reactions were incubated for 210 min and terminated by the addition of 40 μL SPA beads suspended in quench buffer: 150 mM potassium phosphate pH 8.0, 20% glycerol. 25 mM EDTA, 400 μM ATP. The final concentration of SPA beads was 1.0 mg/mL. After the plate sealing, plates were shaken overnight at room temperature and centrifuged at 1800 rpm for 10 minutes, the radioactivity of the product was determined by scintillation counting on Topcount (Perkin-Elmer).

- IC50: < 10 nM
Compound: N#CCC(C1CCN(c2nc3cccnc3o2)C1)n1cc(-c2ncnc3[nH]ccc23)cn1 (stereo unspecified)
